Experimental data from PubChem BioAssay AID248 (DTP/NCI, 2004).
Values joined by “and” are separate entries in the source; they are usually repeats but may differ in a detail not shown here. Equal values may be shown once. Toxic doses and inconclusive results are not listed. Rule as the data show it: active = T/C of 150% or more; inactive = T/C below 125%.

Test system: L1210 leukemia ip in BDF1 mice, survival T/C
Assay: NCI In Vivo Anticancer Drug Screen. Data for tumor model L1210 Leukemia (intraperitoneal) in B6D2F1 (BDF1) mice
Details: endpoint: mean survival time, higher = longer survival
Summary of the method: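 Mice bearing the transplanted tumor received compound or vehicle. Survival of the treated group was divided by that of the vehicle-treated control group to give the ratio.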

[1] = dose: 100.0 mg/kg/injection, schedule: Q04DX002 (ip), vehicle: Klucel (hydroxypropylcellulose) (HPC)
[2] = dose: 200.0 mg/kg/injection, schedule: Q04DX002 (ip), vehicle: Klucel (hydroxypropylcellulose) (HPC)
[3] = dose: 400.0 mg/kg/injection, schedule: Q04DX002 (ip), vehicle: Klucel (hydroxypropylcellulose) (HPC)
[4] = dose: 100.0 mg/kg/injection, schedule: Q01DX009 (ip), vehicle: saline with Tween-80
[5] = dose: 200.0 mg/kg/injection, schedule: Q01DX009 (ip), vehicle: saline with Tween-80
[6] = dose: 400.0 mg/kg/injection, schedule: Q01DX009 (ip), vehicle: saline with Tween-80
[7] = dose: 400.0 mg/kg/injection, schedule: Q01DX001 (ip), vehicle: carboxymethylcellulose (CMC)
[8] = dose: 100.0 mg/kg/injection, schedule: Q04DX003 (ip), vehicle: saline
[9] = dose: 200.0 mg/kg/injection, schedule: Q04DX003 (ip), vehicle: saline
[10] = dose: 400.0 mg/kg/injection, schedule: Q04DX003 (ip), vehicle: saline
[11] = dose: 100.0 mg/kg/injection, schedule: Q01DX001 (ip), vehicle: saline
[12] = dose: 200.0 mg/kg/injection, schedule: Q01DX001 (ip), vehicle: saline
[13] = dose: 400.0 mg/kg/injection, schedule: Q01DX001 (ip), vehicle: saline

Measured: T/C

O=c1cn[nH]c(=O)[nH]1
inactive: dose: 62.5 mg/kg/injection, schedule: Q01DX009 (ip), vehicle: saline 105 % of control and 107 % of control | dose: 62.5 mg/kg/injection, schedule: Q01DX010 (ip), vehicle: saline 97 % of control and 102 % of control | dose: 110.1 mg/kg/injection, schedule: Q01DX Z (ip), vehicle: carboxymethylcellulose (CMC) 107 % of control | dose: 125.0 mg/kg/injection, schedule: Q01DX009 (ip), vehicle: saline 103 % of control and 118 % of control | dose: 125.0 mg/kg/injection, schedule: Q01DX010 (ip), vehicle: saline 94 % of control and 101 % of control | dose: 132.0 mg/kg/injection, schedule: Q01DX Z (ip), vehicle: methylcellulose (MC) 97 % of control | dose: 200.0 mg/kg/injection, schedule: Q01DX Z (ip), vehicle: methylcellulose (MC) 111 % of control | dose: 220.2 mg/kg/injection, schedule: Q01DX Z (ip), vehicle: carboxymethylcellulose (CMC) 121 % of control | dose: 250.0 mg/kg/injection, schedule: Q01DX009 (ip), vehicle: saline 100 % of control and 107 % of control | dose: 250.0 mg/kg/injection, schedule: Q01DX010 (ip), vehicle: saline 108 % of control and 111 % of control | dose: 300.0 mg/kg/injection, schedule: Q01DX Z (ip), vehicle: methylcellulose (MC) 111 % of control | dose: 440.4 mg/kg/injection, schedule: Q01DX Z (ip), vehicle: carboxymethylcellulose (CMC) 113 % of control | dose: 450.0 mg/kg/injection, schedule: Q01DX Z (ip), vehicle: methylcellulose (MC) 105 % of control | dose: 500.0 mg/kg/injection, schedule: Q01DX009 (ip), vehicle: saline 112 % of control and 120 % of control | dose: 500.0 mg/kg/injection, schedule: Q01DX010 (ip), vehicle: saline 117 % of control and 118 % of control | dose: 675.0 mg/kg/injection, schedule: Q01DX Z (ip), vehicle: methylcellulose (MC) 124 % of control | dose: 880.8 mg/kg/injection, schedule: Q01DX Z (ip), vehicle: carboxymethylcellulose (CMC) 121 % of control | dose: 1011.0 mg/kg/injection, schedule: Q01DX Z (ip), vehicle: methylcellulose (MC) 109 % of control

CN1CCN(C(=O)C(c2ccccc2)C2(O)CCCC2)CC1 (stereo not given)
inactive: dose: 5.0 mg/kg/injection, schedule: Q01DX001 (ip), vehicle: saline 96 % of control | dose: 10.0 mg/kg/injection, schedule: Q01DX001 (ip), vehicle: saline 105 % of control

Nc1ccccc1SC(CC(=O)c1ccccc1)c1ccc(Cl)cc1 (stereo not given)
inactive: dose: 100.0 mg/kg/injection, schedule: Q01DX005 (ip), vehicle: Klucel (hydroxypropylcellulose) (HPC) 91 % of control | [1] 89 % of control | dose: 200.0 mg/kg/injection, schedule: Q01DX005 (ip), vehicle: Klucel (hydroxypropylcellulose) (HPC) 97 % of control | [2] 95 % of control | dose: 400.0 mg/kg/injection, schedule: Q01DX005 (ip), vehicle: Klucel (hydroxypropylcellulose) (HPC) 97 % of control | [3] 100 % of control

O=S(=O)(Nc1ccc(Br)cc1)c1ccccc1
inactive: [4] 99 % of control | dose: 100.0 mg/kg/injection, schedule: Q04DX003 (ip), vehicle: saline with Tween-80 105 % of control | [5] 87 % of control | dose: 200.0 mg/kg/injection, schedule: Q04DX003 (ip), vehicle: saline with Tween-80 100 % of control | [6] 95 % of control | dose: 400.0 mg/kg/injection, schedule: Q04DX003 (ip), vehicle: saline with Tween-80 98 % of control

Cc1cc(C)c(C(=O)c2ccccc2)c(=O)o1
inactive: dose: 10.0 mg/kg/injection, schedule: Q01DX001 (ip), vehicle: carboxymethylcellulose (CMC) 100 % of control | dose: 20.0 mg/kg/injection, schedule: Q01DX001 (ip), vehicle: carboxymethylcellulose (CMC) 100 % of control | dose: 40.0 mg/kg/injection, schedule: Q01DX001 (ip), vehicle: carboxymethylcellulose (CMC) 97 % of control | [7] 103 % of control

Oc1c(Br)cc(Nc2c3ccccc3nc3ccccc23)cc1Br
inactive: dose: 100.0 mg/kg/injection, schedule: Q04DX002 (ip), vehicle: saline with Tween-80 100 % of control | dose: 200.0 mg/kg/injection, schedule: Q04DX002 (ip), vehicle: saline with Tween-80 95 % of control | dose: 400.0 mg/kg/injection, schedule: Q04DX002 (ip), vehicle: saline with Tween-80 100 % of control

C(=N\c1oc(-c2ccccc2)nc1Sc1ccccc1)/c1ccccc1
inactive: [1] 92 % of control | [2] 100 % of control | [3] 96 % of control

O=C(O)CCC(NC(=O)c1ccccc1)C(=O)O (stereo not given)
inactive: [8] 100 % of control | [9] 95 % of control | [10] 95 % of control

Cc1cccc2c1sc1c(C)cc(C(=O)CCC(=O)O)cc12
inactive: [11] 94 % of control | [12] 89 % of control | [13] 97 % of control

Cc1nc(NNCc2ccccc2)n[nH]1
inactive: dose: 37.5 mg/kg/injection, schedule: Q01DX001 (ip), vehicle: Klucel (hydroxypropylcellulose) (HPC) 106 % of control | dose: 75.0 mg/kg/injection, schedule: Q01DX001 (ip), vehicle: Klucel (hydroxypropylcellulose) (HPC) 101 % of control | dose: 150.0 mg/kg/injection, schedule: Q01DX001 (ip), vehicle: Klucel (hydroxypropylcellulose) (HPC) 110 % of control

NC(=O)Nc1ccc2c(c1)Cc1ccccc1-2
inactive: dose: 50.0 mg/kg/injection, schedule: Q01DX001 (ip), vehicle: carboxymethylcellulose (CMC) 100 % of control | dose: 100.0 mg/kg/injection, schedule: Q01DX001 (ip), vehicle: carboxymethylcellulose (CMC) 96 % of control | dose: 200.0 mg/kg/injection, schedule: Q01DX001 (ip), vehicle: carboxymethylcellulose (CMC) 100 % of control | [7] 102 % of control

CC(=O)Nc1ccc(/C=N/N2CCN(/N=C/c3ccc(NC(C)=O)cc3)CC2)cc1
inactive: [11] 86 % of control | [12] 96 % of control | [13] 92 % of control

c1ccc(CCN2CCN(CCc3ccccn3)CC2)nc1
inactive: [11] 98 % of control

CNS(=O)(=O)c1ccc(N)cc1
inactive: dose: 100.0 mg/kg/injection, schedule: Q01DX001 (ip), vehicle: other 107 % of control | [4] 102 % of control | dose: 100.0 mg/kg/injection, schedule: Q04DX003 (ip), vehicle: other 97 % of control | dose: 200.0 mg/kg/injection, schedule: Q01DX001 (ip), vehicle: other 104 % of control | [5] 110 % of control | dose: 200.0 mg/kg/injection, schedule: Q04DX003 (ip), vehicle: other 106 % of control | dose: 400.0 mg/kg/injection, schedule: Q01DX001 (ip), vehicle: other 100 % of control | [6] 98 % of control | dose: 400.0 mg/kg/injection, schedule: Q04DX003 (ip), vehicle: other 108 % of control

O=[N+]([O-])c1cccc(S(=O)(=O)O)c1
inactive: dose: 50.0 mg/kg/injection, schedule: Q01DX009 (ip), vehicle: saline 93 % of control | dose: 50.0 mg/kg/injection, schedule: Q04DX003 (ip), vehicle: saline 97 % of control | dose: 100.0 mg/kg/injection, schedule: Q01DX009 (ip), vehicle: saline 87 % of control | [8] 96 % of control and 100 % of control | dose: 200.0 mg/kg/injection, schedule: Q01DX009 (ip), vehicle: saline 93 % of control | [9] 100 % of control and 102 % of control | [10] 90 % of control
